Experiments:
97 kinases = test: KINOMEscan scanEDGE selectivity score; assay type: binding, human; conditions: 10000 nM
Experimental: The possibility of KDS12025 on kinase off-target, the KINOMEscan panel of scanEDGE assay was conducted in DiscoverX (CA, USA) using a site-directed competition binding with the test compounds. The assay results are given in Supplementary Table 4 and experimental information is available on the DiscoverX web page (www.discoverx.com). Moreover, the Delta SafetyScreen87 panel assay was conducted in Eurofins Discovery (Cerep, France). The assay results are given in Supplementary Table 5 and experimental information is available on the DiscoverX web page (https://www.eurofinsdiscoveryservices.com).

[1] = system: primary cultured hippocampal astrocytes; test: oROS-G intracellular H2O2 imaging; assay type: cell-based, mouse; conditions: for oROS-G intensity: Fig. 6e
Experimental: Primary hippocampal astrocytes were obtained from postnatal day 0‒2 (P0‒2) C57BL/6 mice as previously described.[73] The hippocampal tissue was dissected free of meninges, minced, and dissociated into a single-cell suspension by trituration. The cells were grown in Dulbecco’s modified Eagle’s medium supplemented with D-glucose (4500 mg/L), L-glutamine, sodium pyruvate (110 mg/L), 10% heat-inactivated horse serum, 10% heat-inactivated fetal bovine serum, and 1000 U/ml penicillin‒streptomycin. The cells were maintained at 37 °C in a humidified atmosphere containing 5% CO2.
H2O2 specific, highly sensitive, and fast on-and-off kinetics, a genetically encoded oROS-G plasmid kindly provided by Dr. Andre Berndt. oROS-G was cloned under the GFAP104 promoter and delivered into primary cultured hippocampal astrocytes via the NeoN^TM transfection system (Invitrogen). The cells were treated with various concentrations of Aβ (1 to 10 μM) or 6-OHDA (Tocris, 2547; 10 to 50 μM) to induce aberrant H2O2. For subsequent experiments, 5 μM Aβ and 30 μM 6-OHDA were selected on the basis of initial dose‒response studies. KDS12025 (10 μM) and sodium pyruvate (1 mM) were applied as indicated in each experiment. For live-cell imaging, astrocytes were maintained in a humidified chamber at 37 °C with 5% […] during imaging to preserve physiological conditions. Changes in the fluorescence of oROS-G were recorded via an A1 Nikon confocal microscope equipped with a temperature- and humidity-controlled stage. Images were captured every 20 min for up to 40 h (20for the 6-OHDA experiments) via the NIS-Elements software (Nikon, Japan) for time-lapse imaging. The excitation and emission wavelengths for oROS-G fluorescence were set to 485 nm and 538 nm, respectively. Endpoint fluorescence measurements were also collected for KDS12025 dose-dependent experiments. To analyze the fluorescence intensity, individual regions of interest (ROIs) were manually selected for each astrocyte via NIS-Elements software (Nikon, Japan). The fluorescence intensity changes were normalized to the baseline values (ΔF/F0) to quantify the H2O2 dynamics. To determine the EC50 of KDS12025, endpoint fluorescence intensity data from oROS-G experiments were normalized to those of the Aβ+vehicle control group. The normalized data were analyzed via GraphPad Prism software to fit a four-parameter logistic curve, yielding the EC50 value for the H2O2-decomposing activity of KDS12025.

CIA DBA1 mice = test: CIA mouse model of rheumatoid arthritis; assay type: in vivo; parameters: matrix, toluidine blue (Fig. S20m) / surface regularity, toluidine blue (Fig. S20n) / CIA score at day 42 (Fig. S20c) / area under the curve (AUC) of symptom severity (Fig. S20e): scale not given here; cartilage thickness, toluidine blue (Fig. S20o): unit not given here
Experimental: CIA was induced in DBA1 mice by intradermal injection of type II collagen emulsified in Complete Freund's Adjuvant (CFA) on day 0, followed by a booster injection of type II collagen in Incomplete Freund's Adjuvant (IFA) on day 21. Starting from day 23, mice were administered KDS12025 in drinking ad libitum at doses of 0, 0.1, or 1 mg/kg/day until day 42. To assess joint inflammation and cartilage thickness in CIA mice, joint samples were collected and fixed in 10% formalin. The samples were then decalcified, embedded in paraffin, and sectioned. For histological evaluation, sections were stained with H&E to assess inflammation and with Toluidine Blue to evaluate cartilage thickness. The stained sections were examined under a light microscope, and images were captured for quantitative analysis of inflammatory cell infiltration and cartilage integrity.

`CNc1ccc(NCCc2ccccc2OC)cc1.Cl` [KDS12025, N^1-(2-methoxyphenethyl)-N^4-methylbenzene-1,4-diamine hydrochloride salt] was tested, and the “Number of Hits, S(1)” value (97 kinases) was 0, the “Number of Hits, S(10)” value (97 kinases) was 0 and the “Number of Hits, S(35)” value (97 kinases) was 0. For the same compound, the “oROS-G H2O2 level” value ([1]; 6-OHDA 30 μM + KDS12025, Fig. 3k) was 123.4±9.7, the “oROS-G H2O2 level, 40-h imaging” value ([1]; Aβ 5 μM + KDS12025 10 μM, Fig. 3h) was 111.8±4.968 and the oROS-G intensity ([1]; Hbβ-shRNA, Aβ 5 μM + 0.1μM) was 199.3. The oROS-G intensity ([1]; Hbβ-shRNA, Aβ 5 μM + 1μM) was 204.7, the oROS-G intensity ([1]; Hbβ-shRNA, Aβ 5 μM + 10μM) was 182.4 and the EC50 ([1]; Mus musculus, Astrocyte, Aβ 5 µM-treated astrocytes, oROS-G endpoint, read-out: EC50, reduction of Aβ-induced H2O2) was 500 nM. It also gave an oROS-G intensity ([1]; Sc-shRNA, Aβ 5 μM + 0.1μM) of 100.5±13.5, an oROS-G intensity ([1]; Sc-shRNA, Aβ 5 μM + 1μM) of 112.3±24.1 and an oROS-G intensity ([1]; Sc-shRNA, Aβ 5 μM + 10μM) of 83.4±13.5. For the same compound, the “oROS-G H2O2 level, 40-h imaging” value ([1]; putrescine 180 μM + KDS12025 10 μM, Fig. 3i) was 96.12±6.634, the “CIA score at day 42 (Fig. S20c)” value (CIA DBA1 mice; 0.1 MPK) was 9.5±1.133 and the “area under the curve (AUC) of symptom severity (Fig. S20e)” value (CIA DBA1 mice; 0.1 MPK) was 54.17±15.02. For the same compound, the “body weight difference (Fig. S20p)” value (CIA DBA1 mice; 0.1 MPK) was 93±0.5%, the “bone erosion, H&E (Fig. S20k)” value (CIA DBA1 mice; 0.1 MPK) was 0.852±0.3905 and the “cartilage destruction, H&E (Fig. S20i)” value (CIA DBA1 mice; 0.1 MPK) was 1.5±0.2949. For the same compound, the “cartilage thickness, toluidine blue (Fig. S20o)” value (CIA DBA1 mice; 0.1 MPK) was 0.85±0.2018, the “matrix, toluidine blue (Fig. S20m)” value (CIA DBA1 mice; 0.1 MPK) was 1.504±0.3303 and the “pannus formation, H&E (Fig. S20j)” value (CIA DBA1 mice; 0.1 MPK) was 0.9±0.3929. For the same compound, the “paw volume (Fig. S20f)” value (CIA DBA1 mice; 0.1 MPK) was 0.1383 ± 0.0074 mL, the “surface regularity, toluidine blue (Fig. S20n)” value (CIA DBA1 mice; 0.1 MPK) was 1.352±0.3083 and the “synovial hyperplasia, H&E (Fig. S20h)” value (CIA DBA1 mice; 0.1 MPK) was 1.338±0.2985. For the same compound, the “CIA score at day 42 (Fig. S20c)” value (CIA DBA1 mice; 1 MPK) was 6.583±0.7002, the “area under the curve (AUC) of symptom severity (Fig. S20e)” value (CIA DBA1 mice; 1 MPK) was 25.0±9.129 and the “body weight difference (Fig. S20p)” value (CIA DBA1 mice; 1 MPK) was 100.7±0.4%. The “bone erosion, H&E (Fig. S20k)” value (CIA DBA1 mice; 1 MPK) was 0.338±0.2928, the “cartilage destruction, H&E (Fig. S20i)” value (CIA DBA1 mice; 1 MPK) was 0.966±0.2183 and the “cartilage thickness, toluidine blue (Fig. S20o)” value (CIA DBA1 mice; 1 MPK) was 0.652±0.1825. For the same compound, the “matrix, toluidine blue (Fig. S20m)” value (CIA DBA1 mice; 1 MPK) was 0.988±0.2547, the “pannus formation, H&E (Fig. S20j)” value (CIA DBA1 mice; 1 MPK) was 0.338±0.2928 and the “paw volume (Fig. S20f)” value (CIA DBA1 mice; 1 MPK) was 0.1183 ± 0.0047 mL. For the same compound, the “surface regularity, toluidine blue (Fig. S20n)” value (CIA DBA1 mice; 1 MPK) was 0.95±0.2009 and the “synovial hyperplasia, H&E (Fig. S20h)” value (CIA DBA1 mice; 1 MPK) was 0.7620±0.3263.
